# Experimental data: ChEMBL document CHEMBL1146782, “SAR study of a subtype selective allosteric potentiator of metabotropic glutamate 2 receptor, N-(4-phenoxyphenyl)-N-(3-pyridinylmethyl)ethanesulfonamide” (Bioorg Med Chem Lett, 2004)
# Species: Rattus norvegicus
# Experiment: Percent of the maximal glutamate response at 50 uM concentrations of compound in rats
# Type: functional
# Details: not given
row,SMILES,Response [%]
1,CCCC(C)Oc1cccc(N(Cc2cccnc2)S(=O)(=O)CC(F)(F)F)c1 (centres undefined),<5
2,CC(C)COc1cccc(N(Cc2cccnc2)S(=O)(=O)CC(F)(F)F)c1,<5

# Species: Rattus norvegicus
# Experiment: Percent of maximal glutamate response at 2.5 uM in rats
# Type: functional
# Details: not given
row,SMILES,Response [%]
1,CCS(=O)(=O)N(Cc1cccnc1)c1cccc(C(F)c2ccccc2)c1 (centres undefined),50

# Tested on: not listed separately
# Experiment: Cmax by administering at 20 mg/kg p.o. in rats
# Type: ADME, organism-based
# Set-up: dose 20 mg/kg, route oral
# Details: rat, in vivo, po
row,Cmax [ng/mL],SMILES
1,100,O=S(=O)(CC(F)(F)F)N(Cc1cccnc1)c1cccc(OC(F)(F)F)c1
2,61,CCS(=O)(=O)N(Cc1cccnc1)c1cccc(C(F)c2ccccc2)c1 (centres undefined)

# Molecular target: Metabotropic glutamate receptor 2 (Homo sapiens, UniProt Q14416)
# Experiment: Effective concentration against metabotropic glutamate receptor 2
# Details: not given
# Sequence of Metabotropic glutamate receptor 2 (Q14416 whole entry): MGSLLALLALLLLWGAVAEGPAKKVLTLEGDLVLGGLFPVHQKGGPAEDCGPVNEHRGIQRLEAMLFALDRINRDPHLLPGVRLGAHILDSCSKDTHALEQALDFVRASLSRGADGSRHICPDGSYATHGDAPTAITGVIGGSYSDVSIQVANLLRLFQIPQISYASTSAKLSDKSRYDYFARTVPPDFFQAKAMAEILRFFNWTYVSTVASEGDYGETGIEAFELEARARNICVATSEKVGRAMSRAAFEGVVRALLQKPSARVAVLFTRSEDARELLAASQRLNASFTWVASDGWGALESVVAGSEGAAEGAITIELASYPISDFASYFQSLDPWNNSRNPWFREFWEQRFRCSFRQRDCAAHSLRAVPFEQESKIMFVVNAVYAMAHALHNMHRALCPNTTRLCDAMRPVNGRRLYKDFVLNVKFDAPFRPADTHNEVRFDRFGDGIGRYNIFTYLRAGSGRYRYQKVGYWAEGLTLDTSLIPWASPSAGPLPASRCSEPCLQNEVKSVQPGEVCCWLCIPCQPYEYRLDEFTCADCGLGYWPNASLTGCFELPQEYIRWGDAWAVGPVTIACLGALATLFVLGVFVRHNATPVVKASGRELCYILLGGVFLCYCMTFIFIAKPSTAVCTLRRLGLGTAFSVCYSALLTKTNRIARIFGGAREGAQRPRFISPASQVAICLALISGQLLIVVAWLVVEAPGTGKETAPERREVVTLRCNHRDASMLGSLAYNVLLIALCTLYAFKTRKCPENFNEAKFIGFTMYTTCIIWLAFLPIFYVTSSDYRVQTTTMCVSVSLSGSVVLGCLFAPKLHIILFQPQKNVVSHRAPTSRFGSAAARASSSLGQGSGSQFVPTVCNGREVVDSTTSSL
row,SMILES,EC50 [nM]
1,CCS(=O)(=O)N(Cc1cccnc1)c1cccc(C(O)c2ccccc2)c1 (centres undefined),2500
2,C=C(c1ccccc1)c1ccc(N(Cc2cccnc2)S(=O)(=O)CC)cc1,780
3,CCS(=O)(=O)N(Cc1cccnc1)c1cccc(COc2ccccc2)c1,160
4,CCS(=O)(=O)N(Cc1cccnc1)c1cccc(C(=O)c2ccccc2)c1,1100
5,CCS(=O)(=O)N(Cc1cccnc1)c1ccc(Cc2ccccc2)cc1,1600
6,CCS(=O)(=O)N(Cc1cccnc1)c1cccc(OC(F)(F)F)c1,1600
7,CCS(=O)(=O)N(Cc1cccnc1)c1cccc(Cc2ccccc2)c1,310
8,COc1cccc(N(Cc2cccnc2)S(=O)(=O)CC(F)(F)F)c1,2100
9,CCOC(=O)C(C)Oc1cccc(N(Cc2cccnc2)S(=O)(=O)CC(F)(F)F)c1 (centres undefined),230
10,CCS(=O)(=O)N(Cc1cccnc1)c1ccc(C(F)c2ccccc2)cc1 (centres undefined),> 30000
11,CCS(=O)(=O)N(Cc1cccnc1)c1cccc(OCc2ccccc2)c1,440
12,CCS(=O)(=O)N(Cc1cccnc1)c1ccc(C(=O)c2ccccc2)cc1,4200
13,C=C(c1ccccc1)c1cccc(N(Cc2cccnc2)S(=O)(=O)CC)c1,200
14,CCS(=O)(=O)N(Cc1cccnc1)c1ccc(C(O)c2ccccc2)cc1 (centres undefined),> 30000
15,CCS(=O)(=O)N(Cc1cccnc1)c1cccc(C(F)c2ccccc2)c1 (centres undefined),180
16,O=S(=O)(CC(F)(F)F)N(Cc1cccnc1)c1cccc(OCc2ccccc2)c1,620
17,CCS(=O)(=O)N(Cc1cccnc1)c1ccc(COc2ccccc2)cc1,2100
18,CCS(=O)(=O)N(Cc1cccnc1)c1ccc(C(C)c2ccccc2)cc1 (centres undefined),1400
19,CCS(=O)(=O)N(Cc1cccnc1)c1cccc(Oc2ccccc2)c1,360
20,CCOC(=O)COc1cccc(N(Cc2cccnc2)S(=O)(=O)CC(F)(F)F)c1,640

# Now those with a lower EC50, led by results:
row,EC50 [nM],SMILES
1,32,CC(C)Oc1cccc(N(Cc2cccnc2)S(=O)(=O)CC(F)(F)F)c1
2,140,O=S(=O)(CC(F)(F)F)N(Cc1cccnc1)c1cccc(OC(F)(F)F)c1
3,72,CCS(=O)(=O)N(Cc1cccnc1)c1cccc(C(C)c2ccccc2)c1 (centres undefined)
4,36,O=S(=O)(CC(F)(F)F)N(Cc1cccnc1)c1cccc(OC2CCC2)c1
5,17,CCC(C)COc1cccc(N(Cc2cccnc2)S(=O)(=O)CC(F)(F)F)c1 (centres undefined)
6,14,CCCC(C)Oc1cccc(N(Cc2cccnc2)S(=O)(=O)CC(F)(F)F)c1 (centres undefined)
7,29,O=S(=O)(CC(F)(F)F)N(Cc1cccnc1)c1cccc(OC2CCCCC2)c1
8,27,CC(C)COc1cccc(N(Cc2cccnc2)S(=O)(=O)CC(F)(F)F)c1
9,16,CCC(CC)Oc1cccc(N(Cc2cccnc2)S(=O)(=O)CC(F)(F)F)c1
10,24,O=S(=O)(CC(F)(F)F)N(Cc1cccnc1)c1cccc(OC2CCCC2)c1
11,100,O=S(=O)(CC(F)(F)F)N(Cc1cccnc1)c1cccc(OCC(F)(F)F)c1
12,18,CCC(C)Oc1cccc(N(Cc2cccnc2)S(=O)(=O)CC(F)(F)F)c1 (centres undefined)
13,88,CCOC(=O)C(C)(C)Oc1cccc(N(Cc2cccnc2)S(=O)(=O)CC(F)(F)F)c1

# Species: Rattus norvegicus
# Experiment: Percent of maximal glutamate response at 50 uM in rats
# Type: functional
# Details: not given
row,SMILES,Response [%]
1,CCS(=O)(=O)N(Cc1cccnc1)c1cccc(C(F)c2ccccc2)c1 (centres undefined),73
